Values joined by “and” are separate entries in the source; they are usually repeats but may differ in a detail not shown here. Identical values can stand only once. Like-named read-outs stand apart in the source and are kept apart here.

From patent US9895352B2, “Indolinone compounds and uses thereof” (Oncternal Therapeutics, Inc., priority 2014, dated 2018) come the findings set out here.

For series [1], the system named is SKES cells (Ewing Sarcoma cell line). Briefly: CCK-8 tetrazolium tumor cell growth inhibition, SKES. The format is cell-based. Conditions: Homo sapiens. The method, then: A modified tetrazolium salt assay using the CCK-8 kit (Sigma-Aldrich; St Louis, Mo.) was used to measure the inhibition of human tumor cell growth. Tumor cells (5000-7500 per well) were added to 96 well plates and allowed to attach for 4-5 hours. Compounds were serially diluted and added in triplicate at a concentration of 0.02 to 5 μM. DMSO was included as a vehicle control. Cells were incubated in the presence of compound for 3 days. After incubation CCK-8 reagent was added to each well and incubated for 2-4 hours. Viable cells were quantitated spectrophotometrically at a wavelength of 450 nm. Percent viability of each sample was calculated from the A450 values as follows: % viability=(A450 nm sample/A450 nm DMSO-treated cells×100). […] IC50 activities of particular compounds were determined using SKES cells (Ewing Sarcoma cell line).

Series [2] is described as follows: Pharmacokinetics after IV and oral administration. The format is in vivo. Conditions: BALB/c mice or Sprague Dawley rats. The method, then: Certain pharmacokinetics parameters were determined for certain compounds in vivo for intravenous and oral administration. Briefly, compounds were formulated and administered using IV bolus, continuous IV infusion or oral administration. Blood was collected at multiple time points over 24 hours and processed into plasma. Plasma was analyses for parent using LC/MS/MS. Certain parameters for certain compounds were obtained in duplicate.

The conditions of series [3]: human liver microsome, no cofactor, 60 min. In general terms: Liver microsomes are vesicles of endoplasmic reticulum, rich in cytochrome P450 enzymes.
The mark [4] stands for this setting: 72 h, SKES cells, 3 days with compound, CCK-8 (TABLE 3).
The mark [5] stands for this setting: 20 mg/kg po, labrasol/tetraglycol 9:1.
Where [6] appears, read: 20 mg/kg po, labrasol:tetraglycol:water 72:8:20.
[7] abbreviates: plasma, iv, 5 mg/kg, 5 mg/kg IV, captisol.
[8] abbreviates: plasma, po, 20 mg/kg, 20 mg/kg po, labrasol/tetraglycol 9:1.
Setting [9] is: plasma, po, 20 mg/kg, 20 mg/kg po, labrasol:tetraglycol:water 72:8:20.

The term IC50 denotes the concentration that inhibits the measured activity by half. With `CS(=O)(=O)c1ccc(C(=O)CC2(O)C(=O)Nc3c(Cl)ccc(Cl)c32)cc1` (racemic) [Cmpd 4, 4,7-Dichloro-3-hydroxy-3-(2-(4-(methylsulfonyl)phenyl)-2-oxoethyl)indolin-2-one], the IC50 in series [1] (setting [4]) was greater than 5 µM; in series [1] (SKES, ES, EWS-FLI1 Type 2), greater than 5 µM.
Regarding `O=C(CC1(O)C(=O)Nc2c(Cl)ccc(Cl)c21)c1ccc(N2CC2)cc1` (racemic) [Cmpd 8, 3-(2-(4-(Aziridin-1-yl)phenyl)-2-oxoethyl)-4,7-dichloro-3-hydroxyindolin-2-one], the half-maximal inhibitory concentration (IC50) in series [1] (setting [4]) was less than 5 µM; in series [1] (SKES, ES, EWS-FLI1 Type 2), less than 5 µM.
Turning to `CC(C)c1ccc(C(=O)CC2(O)C(=O)Nc3c(Cl)ccc(Cl)c32)cc1` (racemic) [Cmpd 9, 4,7-Dichloro-3-hydroxy-3-(2-(4-isopropylphenyl)-2-oxoethyl)indolin-2-one], the IC50 in series [1] (setting [4]) is greater than 5 µM; in series [1] (SKES, ES, EWS-FLI1 Type 2), greater than 5 µM.
Take `O=C(CC1(O)C(=O)Nc2c(Cl)ccc(Cl)c21)c1ccc(-n2cccn2)cc1` (racemic) [Cmpd 16, 3-(2-(4-(1H-Pyrazol-1-yl)phenyl)-2-oxoethyl)-4,7-dichloro-3-hydroxyindolin-2-one]: the IC50 in series [1] (setting [4]) was greater than 5 µM; in series [1] (SKES, ES, EWS-FLI1 Type 2), greater than 5 µM.
Take `NS(=O)(=O)c1ccc(C(=O)CC2(O)C(=O)Nc3c(Cl)ccc(Cl)c32)cc1` (racemic) [Cmpd 20, 4-(2-(4,7-Dichloro-3-hydroxy-2-oxoindolin-3-yl)acetyl)benzenesulfonamide]: the IC50 was greater than 5 µM in series [1] (setting [4]) and greater than 5 µM in series [1] (SKES, ES, EWS-FLI1 Type 2).
As for `O=C(CC1(O)C(=O)Nc2c(Cl)ccc(Cl)c21)c1ccc(N2CCCC2)c(F)c1` (racemic) [Cmpd 21, 4,7-Dichloro-3-(2-(3-fluoro-4-(pyrrolidin-1-yl)phenyl)-2-oxoethyl)-3-hydroxyindolin-2-one], the IC50 in series [1] (setting [4]) is greater than 5 µM; in series [1] (SKES, ES, EWS-FLI1 Type 2), greater than 5 µM.
For `O=C(CC1(O)C(=O)Nc2c(Cl)ccc(Cl)c21)c1ccc(N2CCC2)cc1` (racemic) [Cmpd 22, 3-(2-(4-(Azetidin-1-yl)phenyl)-2-oxoethyl)-4,7-dichloro-3-hydroxyindolin-2-one], the IC50 in series [1] (setting [4]) was less than 5 µM; in series [1] (SKES, ES, EWS-FLI1 Type 2), less than 5 µM.
With `COC1CCC(C(=O)CC2(O)C(=O)Nc3c(Cl)ccc(Cl)c32)CC1` (racemic) [Cmpd 23, 4,7-Dichloro-3-hydroxy-3-(2-(4-methoxycyclohexyl)-2-oxoethyl)indolin-2-one], the IC50 was greater than 5 µM in series [1] (setting [4]) and greater than 5 µM in series [1] (SKES, ES, EWS-FLI1 Type 2).
`COC12CCC(C(=O)CC3(O)C(=O)Nc4c(Cl)ccc(Cl)c43)(CC1)CC2` (racemic) [Cmpd 24, 4,7-Dichloro-3-hydroxy-3-(2-(4-methoxybicyclo[2.2.2]octan-1-yl)-2-oxoethyl)indolin-2-one]: the IC50 was greater than 5 µM in series [1] (setting [4]) and greater than 5 µM in series [1] (SKES, ES, EWS-FLI1 Type 2).
Take `CN(C)C12CCC(C(=O)CC3(O)C(=O)Nc4c(Cl)ccc(Cl)c43)(CC1)CC2` (racemic) [Cmpd 25, 4,7-Dichloro-3-(2-(4-(dimethylamino)bicyclo[2.2.2]octan-1-yl)-2-oxoethyl)-3-hydroxyindolin-2-one]: the IC50 was greater than 5 µM in series [1] (setting [4]) and greater than 5 µM in series [1] (SKES, ES, EWS-FLI1 Type 2).
Turning to `O=C(CC1(O)C(=O)Nc2c(Cl)ccc(Cl)c21)c1ccc(C2CC2)c(F)c1` (racemic) [Cmpd 26, 4,7-Dichloro-3-(2-(4-cyclopropyl-3-fluorophenyl)-2-oxoethyl)-3-hydroxyindolin-2-one], the IC50 is less than 5 µM in series [1] (setting [4]) and less than 5 µM in series [1] (SKES, ES, EWS-FLI1 Type 2).
In the case of `O=C(CC1(O)C(=O)Nc2c(Cl)ccc(Cl)c21)c1ccc(C2CC2)cc1F` (racemic) [Cmpd 27, 4,7-Dichloro-3-(2-(4-cyclopropyl-2-fluorophenyl)-2-oxoethyl)-3-hydroxyindolin-2-one], the IC50 in series [1] (setting [4]) was less than 5 µM; in series [1] (SKES, ES, EWS-FLI1 Type 2), less than 5 µM.
Turning to `O=C(CC1(O)C(=O)Nc2c(Cl)ccc(Cl)c21)c1ccc(N2CCOCC2)cc1` (racemic) [Cmpd 29, 4,7-dichloro-3-hydroxy-3-(2-(4-moprholinophenyl)-2-oxoethyl)indolin-2-one], the IC50 in series [1] (setting [4]) is greater than 5 µM; in series [1] (SKES, ES, EWS-FLI1 Type 2), greater than 5 µM.
As for `O=C(CC1(O)C(=O)Nc2c(Cl)ccc(Cl)c21)c1ccncc1` (racemic) [Cmpd 30, 4,7-dichloro-3-hydroxy-3-(2-oxo-2-(pyridin-4-yl)ethyl)indolin-2-one], the IC50 in series [1] (setting [4]) is greater than 5 µM; in series [1] (SKES, ES, EWS-FLI1 Type 2), greater than 5 µM.
As to `O=C(CC1(O)C(=O)Nc2c(Cl)ccc(Cl)c21)c1cccnc1` (racemic) [Cmpd 31, 4,7-dichloro-3-hydroxy-3-(2-oxo-2-(pyridin-3-yl)ethyl)indolin-2-one], the IC50 was greater than 5 µM in series [1] (setting [4]) and greater than 5 µM in series [1] (SKES, ES, EWS-FLI1 Type 2).
As for `O=C(CC1(O)C(=O)Nc2c(Cl)ccc(Cl)c21)c1ccccn1` (racemic) [Cmpd 32, 4,7-dichloro-3-hydroxy-3-(2-oxo-2-(pyridin-2-yl)ethyl)indolin-2-one], the concentration for half-maximal inhibition (IC50) in series [1] (setting [4]) was greater than 5 µM; in series [1] (SKES, ES, EWS-FLI1 Type 2) it was greater than 5 µM.
As for `NC(=O)c1ccc(C(=O)CC2(O)C(=O)Nc3c(Cl)ccc(Cl)c32)cc1` (racemic) [Cmpd 33, 4-(2-(4,7-dichloro-3-hydroxy-2-oxoindolin-3-yl)acetyl)benzamide], the IC50 in series [1] (setting [4]) is greater than 5 µM; in series [1] (SKES, ES, EWS-FLI1 Type 2) it was greater than 5 µM.
In the case of `O=C(CC1(O)C(=O)Nc2c(Cl)ccc(Cl)c21)c1ccc(O)cc1` (racemic) [Cmpd 34, 4,7-dichloro-3-hydroxy-3-(2-(4-hydroxyphenyl)-2-oxoethyl)indolin-2-one], the IC50 is greater than 5 µM in series [1] (setting [4]) and greater than 5 µM in series [1] (SKES, ES, EWS-FLI1 Type 2).
Turning to `O=C(CC1(O)C(=O)Nc2c(Cl)ccc(Cl)c21)c1ccc(F)c(F)c1` (racemic) [Cmpd 35, 4,7-dichloro-3-(2-(3,4-difluorophenyl)-2-oxoethyl)-3-hydroxyindolin-2-one], the IC50 in series [1] (setting [4]) is greater than 5 µM; in series [1] (SKES, ES, EWS-FLI1 Type 2), greater than 5 µM.
The term Tmax denotes the time from dosing to the highest level. The Cmax is the maximum level reached in the sampled fluid or tissue. As usually defined, the half-life is the time needed for the level to fall by half in the phase considered. As usually defined, the bioavailability is the share of a dose that reaches the circulation, judged against a reference dose that is usually intravenous. A lower bioavailability goes with poor availability. With `CNc1ccc(C(=O)CC2(O)C(=O)Nc3c(Cl)ccc(Cl)c32)cc1` (single isomer, unassigned) [Cmpd 5, 4,7-dichloro-3-hydroxy-3-[2-[4-(methylamino)phenyl]-2-oxoethyl]-1H-indol-2-one], the AUC in series [2] (5 mg/kg IV, captisol) is 2324 h * (ng/mL) and 3207 h * (ng/mL); in series [2] (setting [5]), 5192 h * (ng/mL) and 4939 h * (ng/mL); in series [2] (setting [6]), 4354 h * (ng/mL) and 4081 h * (ng/mL). Moreover, the time of peak concentration (Tmax) in series [2] (setting [5]) worked out at 0.5 h; in series [2] (setting [6]), 0.5 h; in series [2] (plasma, iv, 5 mg/kg, 5 mg/kg IV, captisol, read-out: Tmax), 0.033 h; in series [2] (plasma, po, 20 mg/kg, 20 mg/kg po, labrasol/tetraglycol 9:1, read-out: Tmax) it was 1 h; in series [2] (plasma, po, 20 mg/kg, 20 mg/kg po, labrasol:tetraglycol:water 72:8:20, read-out: Tmax) it was 1 h. Moreover, the “% F” value in series [2] (setting [6]) came to 39%. The values for the Cmax in series [2] (setting [7]), in series [2] (setting [8]) and in series [2] (setting [9]) were 13000 ng/mL, 2180 ng/mL and 1570 ng/mL, respectively. In addition, the half-life is 1.7 h in series [2] (setting [7]), 3.1 h in series [2] (setting [8]) and 2.8 h in series [2] (setting [9]). Moreover, the results for the bioavailability in series [2] (setting [8]) and in series [2] (setting [9]) were 56% and 47%, respectively.
For the compound `O=C(CC1(O)C(=O)Nc2c(Cl)ccc(Cl)c21)c1ccc(C2CC2)c(F)c1` (single isomer, unassigned) [Cmpd 36, 4,7-Dichloro-3-(2-(4-cyclopropyl-3-fluorophenyl)-2-oxoethyl)-3-hydroxyindolin-2-one], the “Remaining (NCF = 60 min)” value in series [3] is listed as 104.0%.
On to `O=C(CC1(O)C(=O)Nc2c(Cl)ccc(Cl)c21)c1ccc(N2CCCC2)cc1` (stereo not shown) [Cmpd 17, 4,7-Dichloro-3-hydroxy-3-(2-oxo-2-(4-(pyrrolidin-1-yl)phenyl)ethyl)indolin-2-one], for which the IC50 was greater than 5 µM in series [1] (setting [4]) and greater than 5 µM in series [1] (SKES, ES, EWS-FLI1 Type 2).
